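Assay format: 96-well plates, 48-hour exposure. GI50 marks 50% less growth.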 Calls of active or inactive are those of the source. Rule as the data show it: active = GI50 up to about 1.1 µM and inactive = higher.
Assays:
Assay in all cases: inhibition of tumour cell growth, NCI panel, 48 h
SR = tested on: SR
RXF 631 = tested on: RXF 631
MCF7 = tested on: MCF7
T47D = tested on: T47D
786-0 = tested on: 786-0
MDA-N = tested on: MDA-N
Hs-578T = tested on: Hs-578T
BT-549 = tested on: BT-549
DU-145 = tested on: DU-145

## O=C(Nc1ccc(F)cc1)C(=O)C(C(=O)c1ccccc1F)C1OC(=O)c2ccccc21 (stereo unspecified)
SR
  GI50: 19.8 µM (inactive)

## CCOCc1cc(=O)c2c(O)cc3c(c2o1)CCC(C)(C)O3
RXF 631
  GI50: > 100 µM (inactive)

## CCOC(=O)c1cccc(NC(=O)CBr)c1
MCF7
  GI50: 1.19 µM (inactive)
T47D
  GI50: 1.7 µM (inactive)
786-0
  GI50: 0.22 µM (active)
MDA-N
  GI50: 1.4 µM (inactive)
SR
  GI50: 0.206 µM (active)
Hs-578T
  GI50: 2.72 µM (inactive)
BT-549
  GI50: 1.91 µM (inactive)
DU-145
  GI50: 1.82 µM (inactive)

## CCC(=O)c1c(NOC2OCC(OC(C)=O)C(OC(C)=O)C2OC(C)=O)nc(OC)n(C)c1=O (stereo unspecified)
786-0
  GI50: > 100 µM (inactive)
SR
  GI50: > 100 µM (inactive)

## N#C[C@@H](c1nc2ccccc2s1)c1ncccc1[N+](=O)[O-]
MCF7
  GI50: 5.11 µM (inactive)
T47D
  GI50: 4.18 µM (inactive)
786-0
  GI50: 6.19 µM (inactive)
MDA-N
  GI50: 7.46 µM (inactive)
SR
  GI50: 4.67 µM (inactive)
Hs-578T
  GI50: 5.55 µM (inactive)
BT-549
  GI50: 5 µM (inactive)
DU-145
  GI50: 6.34 µM (inactive)

## Clc1ccc(N/N=C(\c2ccccc2)c2ccccn2)nc1
MCF7
  GI50: < 0.01 µM (active)
T47D
  GI50: < 0.01 µM (active)
786-0
  GI50: 0.0367 µM (active)
MDA-N
  GI50: 2.48 µM (inactive)
SR
  GI50: 0.114 µM (active)
Hs-578T
  GI50: 0.456 µM (active)
BT-549
  GI50: 1.85 µM (inactive)
DU-145
  GI50: 0.333 µM (active)

## Cc1cc(C)c(C2=NO[C@@H]3[C@H]2C(=O)C=C2N(Cc4ccccc4)CCO[C@@]23O)c(C)c1
MCF7
  GI50: > 100 µM (inactive)

## CC1CC=CC(O)C1 (stereo unspecified)
MCF7
  GI50: > 100 µM (inactive)

## C[C@H](C(=O)O)C(=O)NC(=O)N(Cc1ccccc1)N=O
786-0
  GI50: > 100 µM (inactive)

## COC(=O)/C=C\n1nc(Br)c(=O)[nH]c1=O
MCF7
  GI50: > 100 µM (inactive)
T47D
  GI50: > 100 µM (inactive)
MDA-N
  GI50: > 100 µM (inactive)
SR
  GI50: > 100 µM (inactive)
Hs-578T
  GI50: > 100 µM (inactive)
BT-549
  GI50: > 100 µM (inactive)
DU-145
  GI50: > 100 µM (inactive)

## CN(C)CCNC(=O)c1ccc(Cl)c2ccc(-c3ccccc3)nc12
MCF7
  GI50: 3.31 µM (inactive)

## CC(C)C(=O)N1C(=O)O[C@@H](c2ccccc2)[C@H]1C
786-0
  GI50: > 100 µM (inactive)
SR
  GI50: > 100 µM (inactive)

## c1ccc(Nc2nnc(CCCCCCCCc3nnc(Nc4ccccc4)o3)o2)cc1
MCF7
  GI50: > 100 µM (inactive)
786-0
  GI50: > 100 µM (inactive)
BT-549
  GI50: > 100 µM (inactive)
DU-145
  GI50: > 100 µM (inactive)

## O=S(O)c1cc(Cl)cc(Cl)c1OCc1ccccc1
RXF 631
  GI50: > 100 µM (inactive)
SR
  GI50: > 100 µM (inactive)

## COCC1N=C(c2cc(OC)c(OC)c(OC)c2-c2cc3c(cc2[C@@H](C)O)OCO3)O[C@H]1c1ccccc1 (stereo partly specified)
MCF7
  GI50: > 61.1 µM (inactive)

## COc1cc(C2c3cc4c(cc3[C@@H](Nc3cccc([N+](=O)[O-])c3)C3COC(=O)[C@H]23)OCO4)cc(OC)c1O (stereo partly specified)
MCF7
  GI50: 0.944 µM (active)

## OCC1C2C=CC(O2)[C@H]1CO (stereo partly specified)
786-0
  GI50: > 100 µM (inactive)
RXF 631
  GI50: > 100 µM (inactive)
SR
  GI50: > 100 µM (inactive)

## COc1ccc2cc3[n+](cc2c1OC)CCc1cc2c(cc1-3)OCO2 [BERBERINE CHLORIDE]
T47D
  GI50: 10.3 µM (inactive)
786-0
  GI50: > 49.4 µM (inactive)
Hs-578T
  GI50: 10 µM (inactive)
DU-145
  GI50: > 44.5 µM (inactive)

Reference: ChEMBL document CHEMBL1201862, “PubChem BioAssay data set” (2004)
